One test deals with rolling leukocytes. In words: leukocyte rolling (histamine-induced recruitment of rolling leukocytes). To be noted: FIG. 15, in words. Type of test: in vivo, rat.
The subject of another test is recombinant E-selectin. The experiment in a line: inhibition of binding of HL-60 cells to recombinant E-selectin. The test is classed as cell-based. The settings on record: FIG. 13, concentration dependence, in words.
The subject of a further test is selectin. The experiment in a line: inhibitory effect of oligosaccharides on selectin-mediated adhesion. The settings on record: in words. The test is classed as cell-based.

As for `CCO[C@@H]1O[C@H](CO)[C@H](O)[C@H](O[C@@H]2O[C@H](CO)[C@@H](O[C@@H]3O[C@H](CO)[C@H](O)[C@H](O[C@]4(C(=O)O)C[C@H](O)[C@@H](NC(C)=O)[C@H]([C@H](O)[C@H](O)CO)O4)[C@H]3O)[C@H](O)[C@H]2NC(C)=O)[C@H]1O` [SLN, reference compound], the “recruitment of rolling leukocytes / leukocyte rolling” value in the test with rolling leukocytes was “had no effect”. For the compound `CCOC1OC(CO)C(O)C(OC2OC(CO)C(OC3OC(CO)C(O)C(OC4(C(=O)O)CC(O)C(NC(C)=O)C(C(O)C(O)CO)O4)C3O)C(OC3OC(C)C(O)C(O)C3O)C2NC(C)=O)C1O` [Z, Ethyl (sodium (5-acetamido-3,5-dideoxy-α-D-glycero-D-galacto-2-nonulopyanosylonate))-(2-3)-O-(β-D-galactopyranosyl)-(1-4)-O-((α-L-fucopyranosyl)-(1-3))-O-(2-acetamido-2-deoxy-β-D-glucopyranosyl)-(1-3)-O-β-D-galactopyranoside], in the test with rolling leukocytes, the “recruitment of rolling leukocytes / leukocyte rolling” value was “inhibited leukocyte rolling”. In addition, the “inhibition of binding of HL-60 cells to recombinant E-selectin” value with recombinant E-selectin was “inhibition of binding of HL-60 cells to recombinant E-selectin in a concentration dependent manner”. Regarding “NeuAcα2,3Galβ1,4(Fucα1,3)GlcNAcβ1,3Galβ--”, the “inhibitory effect relative to the tetrasaccharide” value with selectin is “substantially more inhibitory effect than the tetrasaccharide”.

These data come from patent US5576305A, “Intercellular adhesion mediators” (Cytel Corporation, priority 1995, dated 1996).
